Biological target: T1, IRAK4 (Homo sapiens, UniProt Q9NWZ3)
T1 sequence (Q9NWZ3 1-460): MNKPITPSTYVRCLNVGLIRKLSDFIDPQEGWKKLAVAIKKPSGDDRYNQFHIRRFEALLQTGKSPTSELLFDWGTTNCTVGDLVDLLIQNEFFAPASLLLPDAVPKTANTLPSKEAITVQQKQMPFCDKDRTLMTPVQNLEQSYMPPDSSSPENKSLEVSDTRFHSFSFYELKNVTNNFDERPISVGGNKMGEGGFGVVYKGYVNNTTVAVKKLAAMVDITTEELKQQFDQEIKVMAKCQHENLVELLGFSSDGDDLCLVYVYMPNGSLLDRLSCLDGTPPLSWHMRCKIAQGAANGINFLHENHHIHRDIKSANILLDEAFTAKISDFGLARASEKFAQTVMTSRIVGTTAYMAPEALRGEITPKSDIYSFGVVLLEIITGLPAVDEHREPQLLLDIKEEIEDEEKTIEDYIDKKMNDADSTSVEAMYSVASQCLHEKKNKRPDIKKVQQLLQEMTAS
Assay: Degradation of IRAK4 in THP1 cells, Western blot
Format: cell-based
Set-up: Degradation of IRAK4 in THP1 by compound; host or cells: THP-1
Details: THP-1 cells, 24 hours of incubation; for DC50: IRAK4 protein by Western blot, read-out: DC50; for Dmax: maximum degradation rate, read-out: Dmax
Experimental: After 24 hours of incubation, the cells were collected into 1.5 mL centrifuge tubes and centrifuged at 1,000 rpm for 5 minutes. […] The supernatants were collected, and the IRAK4 protein levels were respectively detected by Western blot (WB). The total protein concentration in the cell lysate supernatant was determined using a BCA protein quantification kit (NCM). Based on the total protein concentration detected by BCA, the samples were adjusted to 2 μg/μL using cell lysis buffer and 5×SDS-PAGE protein loading buffer (Beyotime), heated at 95°C for 5 minutes in a metal bath, and then placed on ice for an ice bath for 5 minutes before being used as the loading samples for Western blot analysis. Protein electrophoresis was performed using a 10% SDS-PAGE gel with a loading volume of 20 μL (total protein 40 μg) and Tris-SDS electrophoresis at a constant voltage of 80 V. After electrophoresis, the proteins on the gel were transferred to a 0.2 μm PVDF membrane (Immobilon) using a semi-dry transfer method at 0.5 A and 20 V for 60 minutes. After transfer, the membrane was placed in 5% skimmed milk and incubated at rt for 2 hours. After blocking, the PVDF membrane was incubated with primary antibody against IRAK4 (Abcam) at 4°C overnight. […] The color development and protein band imaging were performed using a chemiluminescence imaging system ([…] Technology Co., Ltd.). The protein bands were analyzed for grayscale values using Image J analysis software. The corrected grayscale values for each sample were calculated and then compared with those of the control group treated with DMSO alone to calculate the degradation rate.

| DC50 | Dmax | SMILES |
| --- | --- | --- |
| < 100 nM | > 60% | Cn1c(=O)n(C2CCC(=O)NC2=O)c2cccc(N3CCC(CN4CCN(c5ccc(-n6cc(NC(=O)c7cccc(-c8ccn[nH]8)n7)c(S(N)(=O)=O)n6)cc5)CC4)CC3)c21 (stereo not drawn) [Compound A327, N-(1-(4-(4-((1-(1-(2,6-dioxopiperidin-3-yl)-3-methyl-2-oxo-2,3-dihydro-1H-benzo[d]imidazol-4-yl)piperidin-4-yl)methyl)piperazin-1-yl)phenyl)-3-sulfamoyl-1H-pyrazol-4-yl)-6-(1H-pyrazol-5-yl)picolinamide] |
| < 100 nM | > 60% | NC(=O)c1nn(-c2ccc(N3CCN(CC4CCN(c5ccc(OC6CCC(=O)NC6=O)cc5F)CC4)CC3)cc2)cc1NC(=O)c1cccc(C(F)(F)F)n1 (stereo not drawn) [Compound A421, N-(3-Carbamoyl-1-(4-(4-((1-(4-((2,6-dioxopiperidin-3-yl)oxy)-2-fluorophenyl)piperidin-4-yl)methyl)piperazin-1-yl)phenyl)-1H-pyrazol-4-yl)-6-(trifluoromethyl)picolinamide] |
| > 1000 nM | < 40% | N#Cc1ccc(C(=O)Nc2cn(-c3ccc(N4CCN(CC5CCN(c6ccc(NC7CCC(=O)NC7=O)cc6F)CC5)CC4)cc3)nc2C(N)=O)nc1 (stereo not drawn) [Compound A353, N-(3-Carbamoyl-1-(4-(4-((1-(4-((2,6-dioxopiperidin-3-yl)amino)-2-fluorophenyl)piperidin-4-yl)methyl)piperazin-1-yl)phenyl)-1H-pyrazol-4-yl)-5-cyanopicolinamide] |
| < 100 nM | > 60% | Cn1c(=O)n(C2CCC(=O)NC2=O)c2cccc(N3CCC(CN4CCN(c5ccc(-n6cc(NC(=O)c7cccc(C(F)(F)F)n7)c(C(N)=O)n6)cc5)CC4)C(F)(F)C3)c21 (stereo not drawn) [Compound A298, N-(3-Carbamoyl-1-(4-(4-((1-(1-(2,6-dioxopiperidin-3-yl)-3-methyl-2-oxo-2,3-dihydro-1H-benzo[d]imidazol-4-yl)-3,3-difluoropiperidin-4-yl)methyl)piperazin-1-yl)phenyl)-1H-pyrazol-4-yl)-6-(trifluoromethyl)picolinamide] |
| < 100 nM | > 60% | Cn1c(=O)n(C2CCC(=O)NC2=O)c2cccc(NCC3CC4(C3)CN(C(=O)c3ccc(-n5cc(NC(=O)c6cccc(-c7ccn[nH]7)n6)c(S(N)(=O)=O)n5)cc3)C4)c21 (stereo not drawn) [Compound A354, N-(1-(4-(6-(((1-(2,6-Dioxopiperidin-3-yl)-3-methyl-2-oxo-2,3-dihydro-1H-benzo[d]imidazol-4-yl)amino)methyl)-2-azaspiro[3.3]heptane-2-carbonyl)phenyl)-3-sulfamoyl-1H-pyrazol-4-yl)-6-(1H-pyrazol-5-yl)picolinamide] |
| < 100 nM | > 60% | NC(=O)c1cn(-c2ccc(N3CCN(CC4CCN(c5ccc(NC6CCC(=O)NC6=O)cc5F)CC4)CC3)cc2)cc1NC(=O)c1cccc(C(F)(F)F)n1 (stereo not drawn) [Compound A427, N-(4-Carbamoyl-1-(4-(4-((1-(4-((2,6-Dioxopiperidin-3-yl)amino)-2-fluorophenyl)piperidin-4-yl)methyl)piperazin-1-yl)phenyl)-1H-pyrrol-3-yl)-6-(trifluoromethyl)picolinamide] |

| SMILES | DC50 | Dmax |
| --- | --- | --- |
| Cn1c(=O)n(C2CCC(=O)NC2=O)c2cccc(C#CCCN3CCN(C(=O)c4ccc(-n5cc(NC(=O)c6cccc(-c7ccn[nH]7)n6)c(S(N)(=O)=O)n5)cc4)CC3)c21 (stereo not drawn) [Compound A336] | < 100 nM | > 60% |
| Cn1c(=O)n(C2CCC(=O)NC2=O)c2cccc(NCCN3CC4(C3)CN(C(=O)c3ccc(-n5cc(NC(=O)c6cccc(-c7ccn[nH]7)n6)c(S(N)(=O)=O)n5)cc3)C4)c21 (stereo not drawn) [Compound A343] | < 100 nM | > 60% |
| Cn1c(=O)n(C2CCC(=O)NC2=O)c2cccc(NCCN3CC4(C3)CN(Cc3ccc(-n5cc(NC(=O)c6cccc(-c7ccn[nH]7)n6)c(S(N)(=O)=O)n5)cc3)C4)c21 (stereo not drawn) [Compound A334] | < 100 nM | > 60% |

— patent EP4763839A1 (Pamplona Therapeutics (Shenzhen) Co., Ltd., priority 2023, dated 2025)
